Reference: patent publication US7256180B2 (priority 2000, dated 2007)
Read-outs that look alike come from different tables or passages of the source. {C11P} = undecylphosphate group; {Acr} = acridine group

What was measured:
HSV-1 virus (strain L2) = assay type: cell-based, Herpes Simplex Virus 1; conditions: Vero cells, 24 hours
HSV-1 (strain CI) = assay type: in vivo, mice
HSV-1 = assay type: cell-based, Herpes Simplex Virus 1; conditions: BHK cells, oligonucleotide 3.0 μM

Substance: Free Anti-Influenza: AGCAAAAGCAGG, equivalently modified control (5' {C11P}, 3' {Acr}, sugars by position and backbone not given here)
- HSV-1 Infectious Titre (CPE50/ml) (n = 7) (HSV-1 virus (strain L2); oligo conc. 0.2 μM): 1.1 (±0.4) × 10^6 CPE50/ml
- HSV-1 Infectious Titre (CPE50/ml) (n = 7) (HSV-1 virus (strain L2); oligo conc. 1.0 μM): 0.9 (±0.2) × 10^6 CPE50/ml
- HSV-1 Infectious Titre (CPE50/ml) (n = 7) (HSV-1 virus (strain L2); oligo conc. 5.0 μM): 0.6 (±0.3) × 10^6 CPE50/ml
- Animals Survived/No. of Animals in group, Exp. 1 (HSV-1 (strain CI); mouse, in vivo, iv): 0/9
- Animals Survived/No. of Animals in group, Exp. 2 (HSV-1 (strain CI); mouse, in vivo, iv): 1/10
- Animals Survived/No. of Animals in group, Exp. 3 (HSV-1 (strain CI); mouse, in vivo, iv): 0/10
- % Survival (HSV-1 (strain CI); over Exp. 1-3): 7.0%
- HSV-1 Infectious Titre (CPE50/ml) (n = 7) (HSV-1): 9 (±2) × 10^3 CPE50/ml
